Measured values from patent US20250020658A1, “METHODS FOR SYNTHESIZING AND IDENTIFYING SYNTHETIC PROTEINS INCLUDING TARGETED THERAPEUTICS FOR NEURODEGENERATIVE DISORDERS BASED ON BIO-MIMICRY APPROACHES” (University of Denver, priority 2023, published 2025).
Entries after “also recorded” stand apart in the source; their conditions may differ. Read-outs that look alike come from different tables or passages of the source.

Tests used:
[1] = biological target: α-Synuclein (αS) aggregation (Homo sapiens, UniProt P37840); test: Thioflavin T (ThT) dye-based aggregation assay against aggregation of αS; assay type: biochemical; conditions: lower ThT intensity = higher antagonist activity
From the text: The resulting dimers are again evaluated with a ThT assay (step (g)), and the best performing dimer is selected in a step (h). The process is repeated to screen for the best performing trimer (step (i)), and so on.
In particular, FIG. 21 is a graph comparing the relative ThT intensities of various molecules synthesized using the 2D FAST process, in accordance with embodiments. The lower the ThT intensity, the higher the antagonist activity of ligands against the target protein (synuclein aggregation in this example).

C. elegans PD models = test: C. elegans Parkinson's disease models; assay type: in vivo; conditions: for rescue of PD phenotypes: multiple C. elegans PD models: degeneration of dopaminergic neurons, increase in reactive oxygen species, reduced motility
From the text: Using OPs as the basis, the 2D FAST approach was used to identify potent antagonists of α-Synuclein (αS) aggregation, a process central to Parkinson's disease (PD) as discussed above. […] (See, for example, “A 2D Fragment-Assisted Protein Mimetic Approach to Rescue α-Synuclein Aggregation Mediated Early and Post-Disease Parkinson's Phenotypes,” bioRxiv preprint posted 2022 Jul. 13, doi: https://doi.org/10.1101/2022.07.11.499659)

[2] = Parallel Artificial Membrane Permeability Assay (PAMPA); assay type: in vitro ADME; conditions: NS163 compared with NS132
From the text: FIG. 22 is a graph comparing the cell permeability of various ligands identified and synthesized using the 2D FAST approach and assessed using the Parallel Artificial Membrane Permeability Assay (PAMPA) technique. […] FIG. 25 is a graph comparing the relative ThT intensities of various molecules synthesized using the 2D FAST process in the presence of αS, in accordance with embodiments.

[3] = mouse model; cited from earlier work
αS oligomers = αS oligomers (Homo sapiens, UniProt P37840); conditions: pathological high molecular weight αS oligomers vs αS monomers (native conformation), cited from earlier work

SMILES: Cc1ccc(NC(=O)c2ccc([N+](=O)[O-])c(NCC3CCCCC3)n2)c(OCC(=O)O)n1 [NS55]
- antagonist activity against αS aggregation [1]: potent inhibitor of α-Synuclein aggregation

SMILES: Cc1ccc(NC(=O)c2ccc(NC(=O)c3ccc([N+](=O)[O-])c(NCCc4c[nH]c5ccccc45)n3)c(NCC3CCCCC3)n2)c(OCC(=O)NO)n1 [NS163]
- activity within a C. elegans Parkinson's disease model (C. elegans PD models; NS163 as enhanced version of NS132): increased cell permeability and activity
- rescue of PD phenotypes (C. elegans PD models): very effective ligands in rescuing PD phenotypes
- cell permeability [2]: increased cell permeability; also recorded: better cell permeability
- antagonist activity against αS aggregation [1]: potent antagonist of α-Synuclein aggregation; also recorded: without sacrificing activity

SMILES: Cc1ccc(NC(=O)c2ccc(NC(=O)c3ccc([N+](=O)[O-])c(NCCc4c[nH]c5ccccc45)n3)c(NCC3CCCCC3)n2)c(OCC(=O)O)n1 [NS132]
- rescue of PD phenotypes (C. elegans PD models): very effective ligands in rescuing PD phenotypes
- antagonist activity against αS aggregation [1]: most potent tripyridyl; also recorded: antagonist of the multiple facets of αS aggregation

SMILES: COC(=O)c1cc(OCC(=O)O)c2cccc(NC(=O)c3cc(OC(C)C)c4cccc(NC(=O)c5cc(OCC(=O)O)c6cccc(NC(=O)c7cc(OC(C)C)c8cccc([N+](=O)[O-])c8n7)c6n5)c4n3)c2n1 [SK-129]
- crossing of the BBB [3]: efficiently crosses the BBB
- toxicity [3]: without demonstrating any toxicity
- affinity to αS oligomers relative to αS monomers (αS oligomers): 10 fold
- affinity to αS oligomers relative to αS monomers (αS oligomers; listed as SK-α129): ten-fold higher affinity
